From patent publication US20250171495A1, “MUTLI-TARGETED SERINE PROTEASE INHIBITORS FOR TREATMENT OF CANCER AND VIRAL INFECTION” (Washington University, priority 2023, published 2025)

How the values were obtained:
Format in all cases: biochemical
TMPRSS2 = TMPRSS2 (Homo sapiens, UniProt O15393); assay: PS-SCL / HyCoSuL substrate specificity screening, TMPRSS2; conditions: for P2 Position Substrate Activity for TMPRSS2 (percent substrate cleavage/proteolysis): residue fixed at P2 position of substrate library; for P3 Position Various Amino Acids Substrate Activity, TMPRSS2 (percent substrate cleavage/proteolysis) / P3 Position Substrate Activity for TMPRSS2 (percent substrate cleavage/proteolysis): residue fixed at P3 position of substrate library
Sequence of TMPRSS2 (O15393 whole entry): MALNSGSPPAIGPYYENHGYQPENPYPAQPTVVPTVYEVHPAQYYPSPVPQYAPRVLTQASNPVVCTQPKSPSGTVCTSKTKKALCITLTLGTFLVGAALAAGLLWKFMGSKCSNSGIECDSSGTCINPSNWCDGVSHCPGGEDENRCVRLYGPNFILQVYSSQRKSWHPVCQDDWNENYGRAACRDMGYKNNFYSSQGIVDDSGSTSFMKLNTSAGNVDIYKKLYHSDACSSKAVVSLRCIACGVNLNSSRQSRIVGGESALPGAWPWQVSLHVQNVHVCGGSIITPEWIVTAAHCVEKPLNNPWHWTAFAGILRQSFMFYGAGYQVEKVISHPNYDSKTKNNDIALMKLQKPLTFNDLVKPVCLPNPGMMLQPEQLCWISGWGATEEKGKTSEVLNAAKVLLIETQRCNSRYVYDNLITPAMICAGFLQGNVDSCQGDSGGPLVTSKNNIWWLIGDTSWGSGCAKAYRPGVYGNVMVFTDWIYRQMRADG

HGFA = molecular target: T1, HGFA (Homo sapiens, UniProt Q04756); assay: HyCoSuL P4-P2 substrate specificity screening, HGFA; conditions: for P2 Position Substrate Activity for HGFA (percent substrate cleavage/proteolysis): residue fixed at P2 position; for P3 Position Various Amino Acids Substrate Activity, HGFA (percent substrate cleavage/proteolysis): residue fixed at P3 position of substrate library; for P4 Position Various Amino Acids Substrate Activity, HGFA (percent substrate proteolysis/cleavage): residue fixed at P4 position of substrate library; for P3 Position Substrate Activity for HGFA (percent substrate cleavage/proteolysis): residue fixed at P3 position
T1 sequence (Q04756 373-655): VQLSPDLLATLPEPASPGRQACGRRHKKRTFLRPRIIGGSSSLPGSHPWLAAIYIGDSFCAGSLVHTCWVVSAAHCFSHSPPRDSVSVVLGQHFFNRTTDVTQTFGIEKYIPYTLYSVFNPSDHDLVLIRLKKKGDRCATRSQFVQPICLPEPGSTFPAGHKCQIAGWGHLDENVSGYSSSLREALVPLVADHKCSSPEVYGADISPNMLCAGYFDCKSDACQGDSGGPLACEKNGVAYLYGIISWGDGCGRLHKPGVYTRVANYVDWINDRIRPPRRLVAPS

hepsin = molecular target: T2, hepsin (Homo sapiens, UniProt P05981); assay: HyCoSuL P4-P2 substrate specificity screening, hepsin; conditions: for P2 Position Substrate Activity for hepsin (percent substrate cleavage/proteolysis): residue fixed at P2 position; for P3 Position Various Amino Acids Substrate Activity, hepsin (percent substrate cleavage/proteolysis): residue fixed at P3 position of substrate library; for P4 Position Various Amino Acids Substrate Activity, hepsin (percent substrate proteolysis/cleavage): residue fixed at P4 position of substrate library; for P3 Position Substrate Activity for hepsin (percent substrate cleavage/proteolysis): residue fixed at P3 position
T2 construct: purchased R&D Systems 4776-SE-010
T2 sequence (P05981 163-417 limits assumed): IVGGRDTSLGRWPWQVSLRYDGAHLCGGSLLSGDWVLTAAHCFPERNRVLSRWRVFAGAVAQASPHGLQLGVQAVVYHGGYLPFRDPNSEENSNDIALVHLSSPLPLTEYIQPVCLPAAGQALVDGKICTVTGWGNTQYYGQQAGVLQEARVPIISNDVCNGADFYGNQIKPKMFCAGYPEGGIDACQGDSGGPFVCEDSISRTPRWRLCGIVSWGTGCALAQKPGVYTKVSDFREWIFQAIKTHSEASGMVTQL
T2 sequence (P05981 1-162 partner limits assumed): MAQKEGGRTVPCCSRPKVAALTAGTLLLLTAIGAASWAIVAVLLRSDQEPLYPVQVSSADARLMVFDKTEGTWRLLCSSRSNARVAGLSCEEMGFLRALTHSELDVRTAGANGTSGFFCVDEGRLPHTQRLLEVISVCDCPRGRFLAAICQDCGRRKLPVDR

matriptase = molecular target: T3, matriptase (Homo sapiens, UniProt Q9Y5Y6); assay: HyCoSuL P4-P2 substrate specificity screening, matriptase; conditions: for P2 Position Substrate Activity for matriptase (percent substrate cleavage/proteolysis): residue fixed at P2 position; for P3 Position Various Amino Acids Substrate Activity, matriptase (percent substrate cleavage/proteolysis): residue fixed at P3 position of substrate library; for P4 Position Various Amino Acids Substrate Activity, matriptase (percent substrate proteolysis/cleavage): residue fixed at P4 position of substrate library; for P3 Position Substrate Activity for matriptase (percent substrate cleavage/proteolysis): residue fixed at P3 position
T3 sequence (Q9Y5Y6 1-855): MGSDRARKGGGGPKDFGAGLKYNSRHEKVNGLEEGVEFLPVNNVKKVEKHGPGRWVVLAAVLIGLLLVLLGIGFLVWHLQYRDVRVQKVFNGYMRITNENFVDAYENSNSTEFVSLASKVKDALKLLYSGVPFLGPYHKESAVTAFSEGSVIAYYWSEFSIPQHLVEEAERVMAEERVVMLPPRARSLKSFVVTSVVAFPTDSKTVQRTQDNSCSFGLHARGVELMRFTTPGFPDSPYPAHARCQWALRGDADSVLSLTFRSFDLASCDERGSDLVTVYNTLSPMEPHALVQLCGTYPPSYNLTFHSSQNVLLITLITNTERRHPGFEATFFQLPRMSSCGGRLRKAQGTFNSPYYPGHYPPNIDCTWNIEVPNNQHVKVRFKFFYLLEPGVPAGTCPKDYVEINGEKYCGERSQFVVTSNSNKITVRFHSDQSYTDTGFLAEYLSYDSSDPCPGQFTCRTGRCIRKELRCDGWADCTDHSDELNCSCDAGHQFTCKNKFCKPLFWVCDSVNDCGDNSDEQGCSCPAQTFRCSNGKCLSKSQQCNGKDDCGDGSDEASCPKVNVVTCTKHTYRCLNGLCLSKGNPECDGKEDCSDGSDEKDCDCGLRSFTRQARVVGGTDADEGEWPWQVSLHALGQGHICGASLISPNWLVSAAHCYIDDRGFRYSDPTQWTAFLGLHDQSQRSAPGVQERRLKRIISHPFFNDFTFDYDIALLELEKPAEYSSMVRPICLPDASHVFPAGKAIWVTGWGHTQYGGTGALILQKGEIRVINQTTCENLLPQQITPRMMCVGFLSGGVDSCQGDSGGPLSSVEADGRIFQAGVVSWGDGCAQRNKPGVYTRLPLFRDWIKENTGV

[1] = best recognized amino acid set to 100%
[2] = residue fixed at P4 position of substrate library
[3] = P1-Arg HyCoSuL, 100 μM, best recognized amino acid set to 100%
[4] = residue fixed at P4 position, P1-Arg HyCoSuL, 100 μM, best recognized amino acid set to 100%

Row | Substance | P2 Position Substrate Activity for TMPRSS2 (percent substrate cleavage/proteolysis) (TMPRSS2; [1]) [%] | P3 Position Various Amino Acids Substrate Activity, TMPRSS2 (percent substrate cleavage/proteolysis) (TMPRSS2) [%] | P4 Position Various Amino Acids Substrate Activity, TMPRSS2 (percent substrate proteolysis/cleavage) (TMPRSS2; [2]) [%] | P2 Position Substrate Activity for HGFA (percent substrate cleavage/proteolysis) (HGFA; [3]) [%] | P3 Position Various Amino Acids Substrate Activity, HGFA (percent substrate cleavage/proteolysis) (HGFA) [%] | P4 Position Various Amino Acids Substrate Activity, HGFA (percent substrate proteolysis/cleavage) (HGFA) [%] | P2 Position Substrate Activity for hepsin (percent substrate cleavage/proteolysis) (hepsin; [3]) [%] | P3 Position Various Amino Acids Substrate Activity, hepsin (percent substrate cleavage/proteolysis) (hepsin) [%] | P4 Position Various Amino Acids Substrate Activity, hepsin (percent substrate proteolysis/cleavage) (hepsin) [%] | P2 Position Substrate Activity for matriptase (percent substrate cleavage/proteolysis) (matriptase; [3]) [%] | P3 Position Various Amino Acids Substrate Activity, matriptase (percent substrate cleavage/proteolysis) (matriptase) [%] | P4 Position Various Amino Acids Substrate Activity, matriptase (percent substrate proteolysis/cleavage) (matriptase) [%] | P3 Position Substrate Activity for TMPRSS2 (percent substrate cleavage/proteolysis) (TMPRSS2; [1]) [%] | P3 Position Substrate Activity for HGFA (percent substrate cleavage/proteolysis) (HGFA; [3]) [%] | P3 Position Substrate Activity for hepsin (percent substrate cleavage/proteolysis) (hepsin; [3]) [%] | P3 Position Substrate Activity for matriptase (percent substrate cleavage/proteolysis) (matriptase; [3]) [%] | P4 Position Substrate Activity for TMPRSS2 (percent substrate cleavage/proteolysis) (TMPRSS2; residue fixed at P4 position of substrate library, best recognized amino acid set to 100%) [%] | P4 Position Substrate Activity for HGFA (percent substrate cleavage/proteolysis) (HGFA; [4]) [%] | P4 Position Substrate Activity for hepsin (percent substrate cleavage/proteolysis) (hepsin; [4]) [%] | P4 Position Substrate Activity for matriptase (percent substrate cleavage/proteolysis) (matriptase; [4]) [%]
1 | L-Cit | 0.00 | 32.80 | 33.20 | 6.32 | 13.41 | 6.44 | 32.27 | 29.53 | 36.68 | 1 | 21 | 18 |  |  |  |  |  |  |  | 
2 | L-Dab | 0.00 |  | 12.90 | 0.50 |  | 16.76 | 13.49 |  | 47.53 | 0 | 66 | 32 | 36.73 | 29.40 | 48.55 | 66.02 |  |  |  | 
3 | L-Dap | 4.32 |  | 16.80 | 1.49 |  | 13.31 | 10.01 |  | 35.65 | 9 | 52 | 16 | 43.61 | 24.27 | 48.71 | 51.80 |  |  |  | 
4 | L-Gln | 6.03 | 52.35 | 26.44 | 0.89 | 3.47 | 1.96 | 0.00 | 16.72 | 0.76 | 1 | 18 | 0 |  |  |  |  |  |  |  | 
5 | L-Glu | 6.08 | 56.51 | 9.81 | 3.35 | 15.98 | 9.01 | 12.19 | 58.69 | 29.82 | 6 | 44 | 18 |  |  |  |  |  |  |  | 
6 | L-His | 15.38 | 26.27 | 24.98 | 4.00 | 11.93 | 8.90 | 31.24 | 43.05 | 25.35 | 30 | 17 | 10 |  |  |  |  |  |  |  | 
7 | L-Hyp | 10.38 | 2.19 |  | 3.95 | 2.18 |  | 38.67 | 4.70 |  | 2 | 0 | 50 |  |  |  |  | 33.28 | 10.66 | 37.81 | 50.16
8 | L-Ile | 7.29 | 13.26 | 63.74 | 4.94 | 9.06 | 14.09 | 45.68 | 11.37 | 47.02 | 3 | 13 | 32 |  |  |  |  |  |  |  | 
9 | L-Leu | 5.90 | 18.81 | 30.24 | 100.00 | 13.71 | 10.18 | 100.00 | 19.51 | 33.10 | 12 | 22 | 17 |  |  |  |  |  |  |  | 
